From US20070128265A1, “Regulation of cell proliferation and differentiation using topically applied peptides” (priority 2000, published 2007)

Experiments:
[1] = tested on: psoriatic lesion; assay: One patient with chronic psoriasis: topical PTH (1-34) followed by calcipotriene cream; type: in vivo
Text: One patient with chronic psoriasis received topically PTH (1-34) for two months. […] The patient returned two weeks later and, on the lesion treated with PTH (1-34) and the placebo lesion, received topically calcipotriene cream. […] Therefore, the combination therapy of PTH (1-34) followed by calcipotriene or other activated vitamin D compounds can be an effective therapeutic approach for treating psoriasis.

[2] = tested on: psoriatic lesions; assay: Double blind placebo controlled trial in chronic psoriasis, clinical improvement of lesions; type: in vivo, patients; conditions: 20 μg/0.1 ml in Novasome topically, two months
Text: Nine patients with chronic psoriasis were enrolled in a double blind placebo controlled trial. […] The percentage of clinical improvement of scaling, erythema, and induration for the lesion treated with placebo was 17.2, 15, and 30%, respectively. For the lesion treated with PTH (1-34), there was a marked improvement in scaling of 30.9%, erythema 34%, and induration 52%, respectively.

[3] = tested on: mammalian cells; conditions: U.S. Pat. Nos. 5,527,772, 5,840,690 and 6,066,618; agonists or antagonists of PTH and PTHrP; cited from earlier work
[4] = tested on: hair follicle cells; assay: BRDU staining of hair follicle cells in depilated C57 BL/6 mice; type: in vivo; conditions: 10 μg in 30 μl Novasome topically daily for seven days
Experimental: (§1) C57 BL/6 were purchased from Jackson Labs and were in their telogen state of hair development. The animals were depilated as previously described (1). Groups of six animals received daily a topical application of either 10 μg of PTH (1-34) in 30 μl of Novasome or their depilatated backs, 10 μg of PTH (7-34)/30 μl of Novasome, or 30 μl of Novasome. The animals were dosed daily for seven days. Macroscopic evaluation and tritiated thymidine and bromouridine analysis was made on day seven as previously described (1, 2, 3, 4).

[5] = tested on: epidermis; assay: Tritiated thymidine incorporation into epidermal DNA in SKH-1 hairless mice; type: in vivo
Experimental: SKH-1 hairless mice received topically daily for 60 days either 10 μg of PTH (1-34) formulated in Novasome A, PTH (7-34) formulated in Novasome A, or Novasome A without any PTH analog to serve as the control group. The animals received ^3H-tritiated thymidine for the evaluation of epidermal proliferation as previously described.

[6] = tested on: hair follicles; assay: Macroscopic evaluation of hair cycle progression in depilated C57 BL/6 mice; type: in vivo; conditions: for hair growth progression (progression of hair follicles into anagen), macroscopic evaluation: 10 μg in 30 μl Novasome topically daily for seven days
Experimental: as §1

[7] = tested on: epidermis of psoriatic lesions; assay: Skin biopsies of psoriatic lesions: hemotoxilin and eosin staining, immunohistochemistry for PCNA and transglutaminase; type: in vivo, patients; conditions: treated lesions compared to placebo treated lesions, two months

Compound: C=C1/C(=C\C=C2/CCC[C@]3(C)[C@@H]([C@H](C)/C=C/[C@@H](O)C4CC4)CC[C@@H]23)C[C@@H](O)C[C@@H]1O [calcipotriene, reference compound]
- response of psoriatic lesion after two months of topical calcipotriene cream ([1]; lesion pretreated two months with PTH (1-34) or with Novasome placebo): no significant improvement

Compound: PTH (1-34): parathyroid hormone fragment (1-34), agonist peptide; tested topically formulated in Novasome A liposomes
- percentage of clinical improvement of erythema [2]: 34%
- percentage of clinical improvement of induration [2]: 52%
- percentage of clinical improvement of scaling [2]: 30.9%
- effect on proliferation and differentiation of mammalian cells [3]: inhibit proliferation and enhance differentiation of mammalian cells
- response of psoriatic lesion ([1]; topical PTH (1-34) for two months): minimal response
- BRDU staining of the hair follicles [4]: demonstrated a decrease
- decrease in DNA synthesis (proliferation) compared to the control group ([5]; 10 μg topically daily for 60 days in Novasome A, 3H-thymidine): 25%
- hair growth progression (progression of hair follicles into anagen), macroscopic evaluation [6]: decrease in hair growth progression
- PCNA staining in skin biopsies [7]: restoration of the PCNA staining in the basal layer
- proliferation of the epidermis in skin biopsies [7]: marked decrease in the proliferation of the epidermis
- transglutaminase staining in skin biopsies [7]: restoration of transglutaminase staining in the upper granular layer

Compound: PTH (3-34): parathyroid hormone fragment (3-34), agonist of PTH and PTHrP (SEIQLMHNLGKHLNSMERVEWLRKKLQDVHNF; Parathyroid hormone; UniProt P01270 34-65, looked up, fragment)
- effect on proliferation and differentiation of mammalian cells [3]: inhibit proliferation and enhance differentiation of mammalian cells

Compound: PTH (7-34): parathyroid hormone fragment (7-34), antagonist peptide; tested topically formulated in Novasome A liposomes (LMHNLGKHLNSMERVEWLRKKLQDVHNF; Parathyroid hormone Novasome A liposome formulation; UniProt P01270 38-65, looked up, fragment)
- effect on proliferation and differentiation of mammalian cells [3]: enhance the proliferation of mammalian cells
- BRDU staining of the hair follicles [4]: increase in BRDU staining of the hair follicle
- enhancement in DNA synthesis (proliferation) compared to the control group ([5]; 10 μg topically daily for 60 days in Novasome, 3H-thymidine in the epidermis): more than two fold enhancement
- hair growth progression (progression of hair follicles into anagen), macroscopic evaluation [6]: increase in the progression of the hair follicles into their proliferative anagen state
- increase in the anagen area ([6]; 10 μg topically daily for seven days, formulated in Novasome A): 155%

Compound: PTHrP (1-34): parathyroid related peptide fragment (1-34), agonist of PTH and PTHrP
- effect on proliferation and differentiation of mammalian cells [3]: inhibit proliferation and enhance differentiation of mammalian cells

Compound: PTHrP (7-34): parathyroid related peptide fragment (7-34), antagonist of PTH and PTHrP
- effect on proliferation and differentiation of mammalian cells [3]: enhance the proliferation of mammalian cells
